In ChEMBL document CHEMBL2074547, “Efflux of sphingoid bases by P-glycoprotein in human intestinal Caco-2 cells” (Biosci Biotechnol Biochem, 2004):

Biological target: ATP-dependent translocase ABCB1 (Homo sapiens, UniProt P08183)
Experiment: TP_TRANSPORTER: cell accumulation (digoxin-sensitive) in Caco-2 cells
Assay type: functional, cell-based

Sequence of ATP-dependent translocase ABCB1 (P08183 whole entry): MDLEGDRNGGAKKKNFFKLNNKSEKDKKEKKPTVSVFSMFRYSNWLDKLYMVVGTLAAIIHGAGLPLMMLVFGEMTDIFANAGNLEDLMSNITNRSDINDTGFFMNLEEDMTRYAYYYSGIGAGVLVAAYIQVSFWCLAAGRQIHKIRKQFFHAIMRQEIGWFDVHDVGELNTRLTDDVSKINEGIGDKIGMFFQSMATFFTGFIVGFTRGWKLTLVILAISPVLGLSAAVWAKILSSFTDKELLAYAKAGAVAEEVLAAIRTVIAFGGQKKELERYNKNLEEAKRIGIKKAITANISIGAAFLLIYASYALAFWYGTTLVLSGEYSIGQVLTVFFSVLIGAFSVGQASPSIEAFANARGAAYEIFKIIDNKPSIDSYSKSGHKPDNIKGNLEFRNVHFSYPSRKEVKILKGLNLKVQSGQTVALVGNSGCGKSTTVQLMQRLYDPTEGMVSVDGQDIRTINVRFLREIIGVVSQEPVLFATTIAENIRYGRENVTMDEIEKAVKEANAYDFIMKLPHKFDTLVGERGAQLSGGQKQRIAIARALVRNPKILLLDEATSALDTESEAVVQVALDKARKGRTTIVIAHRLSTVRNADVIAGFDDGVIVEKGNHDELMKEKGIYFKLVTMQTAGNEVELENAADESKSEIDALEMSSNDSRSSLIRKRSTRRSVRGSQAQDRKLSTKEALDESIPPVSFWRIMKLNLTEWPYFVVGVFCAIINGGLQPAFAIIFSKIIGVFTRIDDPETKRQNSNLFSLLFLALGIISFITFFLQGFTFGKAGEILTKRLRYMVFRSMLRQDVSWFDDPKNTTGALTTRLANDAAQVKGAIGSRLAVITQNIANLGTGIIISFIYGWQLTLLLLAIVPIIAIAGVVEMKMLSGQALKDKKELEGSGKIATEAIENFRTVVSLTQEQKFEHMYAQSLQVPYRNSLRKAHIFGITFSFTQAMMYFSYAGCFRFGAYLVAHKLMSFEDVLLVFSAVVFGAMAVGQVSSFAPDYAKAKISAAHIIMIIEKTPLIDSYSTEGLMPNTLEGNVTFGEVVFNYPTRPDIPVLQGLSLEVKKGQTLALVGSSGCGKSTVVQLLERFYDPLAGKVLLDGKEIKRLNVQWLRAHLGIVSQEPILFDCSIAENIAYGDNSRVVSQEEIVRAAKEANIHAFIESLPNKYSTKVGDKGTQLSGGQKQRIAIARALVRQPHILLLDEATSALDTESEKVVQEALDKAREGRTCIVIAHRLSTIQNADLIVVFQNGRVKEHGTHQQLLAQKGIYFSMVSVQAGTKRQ

| Structure (SMILES) | Activity |
| --- | --- |
| CCCCCCCCC/C=C/CCCCC(O)C(N)CO (configuration not stated) | substrate [+] |
| CCCCCCCCC/C=C\CCCCC(O)C(N)CO (configuration not stated) | substrate [+] |
| CCCCCCCCC/C=C/CC/C=C/C(O)C(N)CO (configuration not stated) | substrate [+] |

Other lines, results leading:

| Activity | Structure (SMILES) |
| --- | --- |
| is not a substrate [-] | CCCCCCCCCCCCC/C=C/[C@@H](O)[C@@H](N)CO [SPHINGOSINE] |
| substrate [+] | CCCCCCCCC/C(C)=C/CC/C=C/C(O)C(N)CO (configuration not stated) |
| substrate [+] | CCCCCCCCCCCCCCC[C@@H](O)[C@@H](N)CO [DIHYDROSPINGOSINE] |
| substrate [+] | CCCCCCCCC/C=C\CC/C=C/C(O)C(N)CO (configuration not stated) |
